Like-named read-outs stand apart in the source and are kept apart here.
Key:
FABP7 [1] = molecular target: T1, FABP7 (Homo sapiens, UniProt O15540); experiment: Fluorescent probe (ANS) displacement from purified FABP7; assay type: binding
From the text: (§1) We first examined the binding of EETs (Fig. 1) to purified FABP3, FABP5, and FABP7 via fluorescent probe displacement assays as previously described[30],[31]. 5,6-EET, 8,9-EET, 11,12-EET, and 14,15-EET bound to all three FABPs with distinct selectivity. […] Similarly, 11,12-EET emerged as the preferred ligand for FABP5 followed by 8,9-EET, 5,6-EET, and 14,15-EET (Fig. 2A, Table 1). For FABP7, 11,12-EET bound with highest affinity while interactions of the remaining EETs were considerably weaker.
(§2) Affinities of each ligand were determined via fluorescent probe displacement from purified FABPs as previously described[30],[31],[47]. Ligands were incubated in assay buffer (30 mM Tris, 100 mM NaCl, pH 7.5) containing 3 μM purified FABPs, 500 nM DAUDA (for FABP3 and FABP5) or ANS (for FABP7). AA (10 μM) was included to account for maximal probe displacement. The fluorescence signal was quantified on a F5 Filtermax Multi-Mode Microplate Reader (Molecular Devices) with the excitation and emission wavelengths set at 360/535 nm for DAUDA and 360/465 nm for ANS. After background subtraction, normalized fluorescence values were fit to a one-site binding model using GraphPad Prism (v 9.5) and Ki values were determined using the following equation: Ki = IC50/(1 + ([Probe]/Kd).

FABP5 [2] = molecular target: T2, FABP5 (Homo sapiens, UniProt Q01469); experiment: Fluorescent probe (DAUDA) displacement from purified FABP5; assay type: binding
T2 sequence (Q01469 whole entry): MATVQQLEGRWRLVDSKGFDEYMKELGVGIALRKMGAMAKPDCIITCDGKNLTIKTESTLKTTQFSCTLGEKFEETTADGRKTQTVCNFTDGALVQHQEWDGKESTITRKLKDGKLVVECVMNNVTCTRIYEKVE
Description: We first examined the binding of EETs (Fig. 1) to purified FABP3, FABP5, and FABP7 via fluorescent probe displacement assays as previously described[30],[31].
Affinities of each ligand were determined via fluorescent probe displacement from purified FABPs as previously described[30],[31],[47]. Ligands were incubated in assay buffer (30 mM Tris, 100 mM NaCl, pH 7.5) containing 3 μM purified FABPs, 500 nM DAUDA (for FABP3 and FABP5) or ANS (for FABP7). AA (10 μM) was included to account for maximal probe displacement.

FABP3 = FABP3 (Homo sapiens, UniProt P05413); experiment: Fluorescent probe (DAUDA) displacement from purified FABP3; assay type: binding
Chain of FABP3 (P05413 whole entry): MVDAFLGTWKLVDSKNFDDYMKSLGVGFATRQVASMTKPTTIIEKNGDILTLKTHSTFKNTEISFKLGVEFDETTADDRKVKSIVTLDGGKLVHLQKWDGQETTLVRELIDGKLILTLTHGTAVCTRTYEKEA
From the text: as §1, §2

[3] = system: CA1 pyramidal neuron glutamate synapses; set-up: method as in PMID 28526610, PMID 29138698; settings: previous studies; cited from earlier work
[4] = system: CA1 pyramidal neuron glutamate synapses; experiment: Ex vivo whole-cell recordings of evoked EPSCs in hippocampal slices; assay type: cell-based, C57Bl/6 mice
Description: Mice were deeply anesthetized with isoflurane and decapitated. Coronal brain slices (350 μm thick) containing the hippocampus were cut using a vibratome Leica VT 1200 (Leica, CA) in a modified ice-cold […] artificial cerebrospinal fluid (ACSF) composed in mM: 110 mM choline-Cl, 2.5 mM KCl, 0.5 mM CaCl2, 7 mM MgSO4, 1.25 mM NaH2PO4, 26.2 mM NaHCO3, 11.6 mM sodium L-ascorbate, 3.1 mM sodium pyruvate, and 25 mM glucose, and equilibrated with 95% O2 and 5% CO2. Hippocampal slices were first transferred to a chamber with the same cutting solution at 35 °C for 15 min and then to a standard ACSF in mM: 119 mM NaCl, 2.5 mM CaCl2, 1.3 mM MgSO4, 1 mM NaH2PO4, 26.2 mM NaHCO3, and 11 mM glucose continuously bubbled with a mixture of 95% O2 and 5% CO2 for additional 45 min at 35 °C. Slices were allowed to recover at room temperature (≥ 1 h). After recovery, individual slice was transferred to a recording chamber, continuously perfused with standard ACSF containing 0.01% DMSO saturated with 95% O2 and 5% CO2, and warmed at 30 °C.
Hippocampal CA1 pyramidal neurons were visualized using an upright microscope (BX 51 WI; Olympus, Tokyo, Japan) and somatic whole-cell recordings were obtained from pyramidal neurons using glass pipette electrodes with 3–5 MΩ resistance when filled with an internal solution containing: 120 mM potassium gluconate, 10 mM KCl, 10 mM Na2-phosphocreatine, 10 mM HEPES, 1 mM MgCl2, 1 mM EGTA, 2 mM Na2-ATP, 0.25 mM Na-GTP (pH 7.3 adjusted with KOH; osmolarity, 280–290 mOsmol/l). All recordings were performed in the presence of the GABA A receptor antagonist picrotoxin (100 μM). Excitatory postsynaptic currents (EPSCs) were evoked with electrical pulses (5–20 V, 100–200 μs) delivered at 0.1 Hz using glass microelectrode placed in the […] in CA1 pyramidal neurons voltage-clamped at − 70 mV. All recorded currents were amplified with an a Multiclamp 700B amplifier (Molecular Devices, Sunnyvale, CA), filtered at 3 kHz, digitized at 20 kHz with Digidata 1200 (Molecular Devices), and acquired using the pClamp 10.7 software (Molecular Devices, Sunnyvale, CA). To examine the impact of TPPU on the amplitude of evoked EPSCs, at least 10–20 min of stable baseline recordings were obtained and TPPU was perfused to the brain slices (final DMSO concentration of 0.01%).
For the analysis of the electrophysiology data, the amplitude of evoked EPSCs (eEPSC) was determined by measuring the average current during a 2-ms period at the peak of each eEPSC and subtracted from the average baseline current determined during a 5-ms window taken before the stimulus artifact. All eEPSC amplitudes were normalized to the mean baseline amplitude recorded for at least 10 min before drug application. All the data are represented as the mean ± SE and were not transformed.

FABP5 [5] = molecular target: T2, FABP5; set-up: method as in PMID 8798739, PMID 8608126; settings: cited from earlier work
FABP7 [6] = molecular target: T1, FABP7; set-up: method as in PMID 8798739, PMID 8608126; settings: cited from earlier work
[7] = mean ± S.E., n = 4, Table 1, read-out: Ki FABP5

T1 sequence (O15540 whole entry): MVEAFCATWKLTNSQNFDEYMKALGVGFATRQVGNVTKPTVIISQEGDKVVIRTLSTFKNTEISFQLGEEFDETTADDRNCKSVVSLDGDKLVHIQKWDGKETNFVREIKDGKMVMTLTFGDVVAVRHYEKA

Row | SMILES | Ki (FABP7 [1]; mean ± S.E., n = 4, Table 1) [µM] | Ki (FABP5 [2]; [7]) [µM] | Ki (FABP3; mean ± S.E., n = 4, Table 1) [µM] | other results
1 | CCCCCC(O)C=CC1C(O)CC(O)C1CC=CCCCC(=O)NCCO (stereo not drawn) [PGF2α-EA, prostamide F2α] | > 50 | > 50 | > 50 | –
2 | CCCCC[C@H]1O[C@H]1C/C=C\C/C=C\C/C=C\CCCC(=O)O [14,15-EET] | 3.74 ± 0.12 | 5.56 ± 0.48 | 0.65 ± 0.08 | Effect on hippocampal glutamate synapses [3]: potentiates
3 | CCCCCCCC/C=C\CCCCCCCC(=O)OC[C@H](O)COP(=O)(O)O [LPA, oleoyl lysophosphatidic acid] | > 50 | 3.2 ± 0.19 | 1.37 ± 0.12 | –
4 | O=C(O)C1[C@H](c2ccccc2)C(C(=O)Oc2cccc3ccccc23)[C@H]1c1ccccc1 (stereo partly shown) [SBFI-26] | – | – | – | Ki (FABP7 [1]; inhibitors, Table 3): 0.45 ± 0.07 µM; Effect on TPPU-induced potentiation of eEPSCs ([4]; inhibitor 10 µM with TPPU 10 µM, hippocampal slices): significantly reduced; Ki (FABP3; inhibitors, Table 3): 2.7 ± 0.42 µM
5 | CCCCCC=CC=C1C(=O)C=CC1CC=CCCCC(=O)O (stereo not shown) [15d-PGJ2, 15-deoxy-Δ^12,14-Prostaglandin J2] | 29.9 ± 5.64 | – | 1.22 ± 0.14 | Ki (FABP5 [2]): 12.3 ± 1.54 µM
6 | CCCCC/C=C\C/C=C\C[C@H]1O[C@H]1C/C=C\CCCC(=O)O [8,9-EET] | 3.16 ± 0.3 | 1.87 ± 0.21 | 0.17 ± 0.02 | –
7 | CCCCCC(O)C=CC1C(O)CC(=O)C1CC=CCCCC(=O)OCC(O)CO (stereo not shown) [PGE2-GE, prostaglandin E2 glyceryl ester] | > 50 | > 50 | > 50 | –
8 | CCC(=O)N1CCC(NC(=O)Nc2ccc(OC(F)(F)F)cc2)CC1 [TPPU] | – | – | – | CA1 pyramidal neurons showing depression of eEPSC amplitude ([4]; TPPU 10 µM): 41%; CA1 pyramidal neurons showing potentiation of eEPSC amplitude ([4]; TPPU 10 µM): 47%; Coefficient of variation (CV) during depression of EPSCs ([4]; TPPU 10 µM vs baseline, n = 5, p = 0.086): not accompanied with significant changes; Paired pulse ratio (PPR) during depression of EPSCs ([4]; TPPU 10 µM vs baseline, n = 5, p = 0.108): not accompanied with significant changes; Coefficient of variation (CV) during potentiation of eEPSCs ([4]; TPPU 10 µM vs baseline, n = 7, p = 0.0017): significant decrease; Paired pulse ratio (PPR) during potentiation of eEPSCs ([4]; TPPU 10 µM vs baseline, n = 7, p = 0.042): significant decrease

More lines, main results first:

Row | Ki (FABP7 [1]; mean ± S.E., n = 4, Table 1) [µM] | Ki (FABP5 [2]; [7]) [µM] | Ki (FABP3; mean ± S.E., n = 4, Table 1) [µM] | SMILES | other results
9 | > 50 | > 50 | > 50 | CCCCC[C@H](O)/C=C/[C@@H]1[C@@H](C/C=C\CCCC(=O)O)[C@@H](O)C[C@H]1O [PGF2α] | –
10 | 1.13 ± 0.11 | 0.52 ± 0.07 | 0.2 ± 0.03 | CCCCC/C=C\C[C@H]1O[C@H]1C/C=C\C/C=C\CCCC(=O)O [11,12-EET] | Effect on hippocampal glutamate synapses [3]: depresses
11 | > 50 | > 50 | > 50 | CCCCC[C@H](O)/C=C/[C@H]1[C@H](O)CC(=O)[C@@H]1C/C=C\CCCC(=O)O [PGE2, prostaglandin E2] | Affinity for FABP5 (FABP5 [5]): does not display appreciable affinity; Affinity for FABP7 (FABP7 [6]): does not display appreciable affinity
12 | 4.3 ± 0.29 | 3.57 ± 0.28 | 1.44 ± 0.12 | CCCCC/C=C\C/C=C\C/C=C\C[C@H]1O[C@H]1CCCC(=O)O [5,6-EET] | –

Reference: publication PMC10502087, “Fatty acid binding proteins are novel modulators of synaptic epoxyeicosatrienoic acid signaling in the brain” (Scientific Reports, 2023)
